The text below walks through data of PubChem BioAssay (NCI).

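Grown in 96-well plates, cells were treated for 48 hours with each compound at five concentrations. Insufficient inhibition: endpoint recorded as highest concentration tested. TGI marks complete inhibition of growth.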

Test systems include MDA-N; SNB-75 CNS; HL-60(TB) leukemia; MDA-MB-435; NCI-H226 lung; SF-268 CNS; SF-295 CNS; SN12C renal; OVCAR-5 ovarian; HOP-92 NSCLC; A549 NSCLC; MCF7 breast; OVCAR-8 ovarian; CAKI-1 renal; SK-OV-3 ovarian; UO-31 renal; RXF 393 renal; OVCAR-4 ovarian; SK-MEL-2 melanoma; RPMI-8226 leukemia.
What all share (assay): inhibition of tumour cell growth, NCI panel, 48 h

As for `C/C(O)=C(/C=N\C(=S)Nc1ccc(Cl)c(Cl)c1)C(=O)Nc1ccccc1C`, the TGI with MDA-N is above 100 µM; with SNB-75 CNS, 66.3 µM; with HL-60(TB) leukemia, 60.1 µM; with MDA-MB-435, above 100 µM; in the experiment with NCI-H226 lung it was 88.7 µM; with SF-268 CNS it was above 100 µM. The TGI in the experiment with SF-295 CNS is above 100 µM; with SN12C renal, above 100 µM; in the experiment on OVCAR-5 ovarian it was above 100 µM; in the experiment with HOP-92 NSCLC, 58.1 µM; with A549 NSCLC, above 100 µM; in the experiment with MCF7 breast it was above 100 µM. Besides, the TGI is 66.3 µM in the experiment on OVCAR-8 ovarian; 95.7 µM with CAKI-1 renal; above 100 µM in the experiment with SK-OV-3 ovarian; above 100 µM with UO-31 renal; above 100 µM in the experiment with RXF 393 renal; 76.5 µM with OVCAR-4 ovarian. For the same compound, the TGI with SK-MEL-2 melanoma was above 100 µM.

Take `COc1cc(C2SCC(=O)N2c2ccc(-c3ccc(-n4c(-c5ccccc5)nc5ccccc5c4=O)cc3)cc2)ccc1O` (stereo not drawn): the TGI in the experiment on MDA-N was above 100 µM; in the experiment on SNB-75 CNS, 49.8 µM; with HL-60(TB) leukemia, above 100 µM; in the experiment on MDA-MB-435, above 100 µM; in the experiment with NCI-H226 lung, above 100 µM; in the experiment with SF-268 CNS it was above 100 µM. For the same compound, the TGI with SF-295 CNS is above 100 µM; with SN12C renal it was above 100 µM; in the experiment with OVCAR-5 ovarian, above 100 µM; in the experiment with HOP-92 NSCLC it was 74.1 µM; in the experiment with A549 NSCLC it was above 100 µM; in the experiment on MCF7 breast it was above 100 µM. Further, the TGI in the experiment with OVCAR-8 ovarian, in the experiment with CAKI-1 renal, in the experiment on SK-OV-3 ovarian, in the experiment with UO-31 renal, with OVCAR-4 ovarian and in the experiment on SK-MEL-2 melanoma was above 100 µM throughout. The same compound gave a TGI in the experiment with RPMI-8226 leukemia above 100 µM.

Consider `CCOC(=O)C1c2[nH]c3ccccc3c2CCN1C(=O)c1ccco1` (stereo not drawn), for which the TGI in the experiment with MDA-N, with SNB-75 CNS, with HL-60(TB) leukemia, with MDA-MB-435, with SF-268 CNS and in the experiment with SF-295 CNS was above 10 µM each time. Moreover, the TGI in the experiment on SN12C renal, in the experiment on HOP-92 NSCLC, in the experiment with A549 NSCLC, in the experiment with MCF7 breast, with OVCAR-8 ovarian and in the experiment on CAKI-1 renal was above 10 µM throughout. Moreover, the TGI in the experiment on SK-OV-3 ovarian, in the experiment on OVCAR-4 ovarian and in the experiment on RPMI-8226 leukemia was above 10 µM in each case.

In the case of `OC(c1ccc(F)cc1)C(F)(F)c1nc(-c2ccccc2)no1` (stereo not drawn), the TGI in the experiment on MDA-N came to 62.7 µM; in the experiment on HL-60(TB) leukemia, 48.7 µM; in the experiment with MDA-MB-435 it was 35.6 µM; with SF-268 CNS, 62.9 µM; with SN12C renal, 39.8 µM; with OVCAR-5 ovarian, 35.6 µM. Also, the TGI in the experiment on HOP-92 NSCLC was 91.9 µM; with MCF7 breast, 50.3 µM; with OVCAR-8 ovarian it was above 100 µM; in the experiment on CAKI-1 renal it was 72.1 µM; with UO-31 renal it was 35.4 µM; with OVCAR-4 ovarian, 41.5 µM. Further, in the experiment with SK-MEL-2 melanoma, the TGI was found to be 39.1 µM.

With `COc1ccc(C2=NN(C(=O)c3ccccc3)C(O)(c3cc(F)c(Cl)cc3Cl)C2)cc1OC` (stereo not drawn), the TGI in the experiment with MDA-N, in the experiment on HL-60(TB) leukemia, with MDA-MB-435, in the experiment with NCI-H226 lung, in the experiment with SF-268 CNS and in the experiment with SF-295 CNS was above 100 µM in each case. Also, the TGI in the experiment with SN12C renal is above 100 µM; in the experiment on OVCAR-5 ovarian, above 100 µM; in the experiment on HOP-92 NSCLC, 78.9 µM; with A549 NSCLC, above 100 µM; with MCF7 breast, above 100 µM; in the experiment on OVCAR-8 ovarian, above 100 µM. Also, the TGI was above 100 µM in the experiment on CAKI-1 renal; 48.8 µM in the experiment with SK-OV-3 ovarian; 89.4 µM with UO-31 renal; 55.5 µM with RXF 393 renal; 53.1 µM in the experiment on OVCAR-4 ovarian; 91.7 µM in the experiment with SK-MEL-2 melanoma. In addition, the TGI in the experiment with RPMI-8226 leukemia is above 100 µM.

With `C/C(=N\Nc1nc2ccccc2[nH]1)c1ccncn1`, the TGI is above 100 µM in the experiment on MDA-N; above 74.5 µM with SNB-75 CNS; 0.054 µM in the experiment with HL-60(TB) leukemia; above 100 µM with MDA-MB-435; above 44.6 µM in the experiment on SF-295 CNS; 10.2 µM with SN12C renal. For the same compound, the TGI in the experiment on OVCAR-5 ovarian is above 100 µM; with HOP-92 NSCLC, 0.293 µM; with A549 NSCLC, above 100 µM; in the experiment with MCF7 breast it was above 39.2 µM; with OVCAR-8 ovarian, above 87.6 µM; in the experiment on CAKI-1 renal, above 49 µM. The values for the TGI in the experiment with SK-OV-3 ovarian, in the experiment on OVCAR-4 ovarian and in the experiment on SK-MEL-2 melanoma were 64.3 µM, above 100 µM and above 66.1 µM, respectively.

Turning to `COc1cc(CNc2nc3ccccc3nc2-c2cccs2)cc(OC)c1OC`, the TGI in the experiment on MDA-N is 95.8 µM; in the experiment on SNB-75 CNS, above 100 µM; in the experiment with HL-60(TB) leukemia, above 100 µM; in the experiment on MDA-MB-435, above 100 µM; with NCI-H226 lung, 97.7 µM; with SF-268 CNS, above 100 µM. Moreover, the TGI in the experiment on SF-295 CNS is above 100 µM; with SN12C renal it was 37.8 µM; with OVCAR-5 ovarian, above 100 µM; with HOP-92 NSCLC, 10.1 µM; in the experiment with A549 NSCLC, above 100 µM; in the experiment with MCF7 breast it was above 100 µM. Besides, the TGI was above 100 µM in the experiment with OVCAR-8 ovarian; 28.4 µM with CAKI-1 renal; above 100 µM in the experiment on SK-OV-3 ovarian; 25 µM in the experiment with UO-31 renal; above 100 µM in the experiment with RXF 393 renal; 23.4 µM in the experiment on OVCAR-4 ovarian. This compound also displayed a TGI in the experiment with RPMI-8226 leukemia of 53.4 µM.

For `CC(C)(C)c1ccc(-c2nc3ccccc3c(=O)o2)cc1`, the TGI with MDA-N was above 100 µM; in the experiment with SNB-75 CNS it was 95.2 µM; in the experiment on HL-60(TB) leukemia, 48.8 µM; in the experiment with MDA-MB-435, above 100 µM; in the experiment on SF-268 CNS, above 100 µM; with SF-295 CNS it was above 100 µM. For the same compound, the TGI with SN12C renal was above 100 µM; with OVCAR-5 ovarian it was above 100 µM; with HOP-92 NSCLC it was above 100 µM; in the experiment with A549 NSCLC, 86.6 µM; in the experiment with MCF7 breast it was 62.2 µM; in the experiment on OVCAR-8 ovarian, above 100 µM. Further, the TGI in the experiment with CAKI-1 renal is above 100 µM; in the experiment on SK-OV-3 ovarian it was above 100 µM; in the experiment on UO-31 renal it was above 100 µM; with RXF 393 renal, above 100 µM; with OVCAR-4 ovarian, above 100 µM; with SK-MEL-2 melanoma, 66.6 µM. Besides, the TGI in the experiment with RPMI-8226 leukemia was 93.3 µM.
